Experimental data published in ChEMBL document CHEMBL1134701, “Atropisomeric quinazolin-4-one derivatives are potent noncompetitive alpha-amino-3-hydroxy-5-methyl-4-isoxazolepropionic acid (AMPA) receptor antagonists” (Bioorg Med Chem Lett, 2001).
pIC50: −log10 of the molar value.

Key:
[1] = target: T1, Glutamate receptor ionotropic, AMPA (Rattus norvegicus, UniProt P19490+P19491+P19492+P19493); assay: Ability to block kainate-induced 45 [Ca2+] influx through functional assay of Ionotropic glutamate receptor AMPA activity in rat cerebellar granule cells
[2] = target: T1, Glutamate receptor ionotropic, AMPA; assay: Evaluated in patch clamp electrophysiology study for its selectively evoked Ionotropic glutamate receptor AMPA mediated inward currents.
Rattus norvegicus [3] = species on record: Rattus norvegicus; assay: Evaluated in patch clamp electrophysiology study for its selectively evoked AMPA and NMDA (glutamate receptors) mediated inward currents reduction; format: functional
Rattus norvegicus [4] = assay: Evaluated in vivo for the reduction in the population spike amplitude in the CA3 region of the hippocampus in anesthetized rat at a dose of 2 mg/kg (iv); format: functional
Mus musculus [5] = assay: Blockade of ivc AMPA induced seizures in mice on subcutaneous administration (95%CI); format: functional
Mus musculus [6] = assay: Blockade of pentylenetetrazole induced seizures in mice on subcutaneous administration (95% CI); format: functional
Mus musculus [7] = assay: Minimum effective dose in mice on subcutaneous administration; format: functional
[8] = target: T1, Glutamate receptor ionotropic, AMPA; assay: Ability to block kainate-induced 45 [Ca2+] influx through functional assay of Ionotropic glutamate receptor AMPA activity in rat cerebellar granule cells.
Mus musculus [9] = assay: Blockade of pentylenetetrazole induced seizures in mice on subcutaneous administration; format: functional; conditions: sc, read-out: ID50 (the source's name)

Structure (SMILES)	pIC50 [1]	other results
COC(=O)c1cccc(/C=C/c2nc3ccc(F)cc3c(=O)n2-c2ccccc2Cl)n1	6.40	
O=c1c2ccccc2nc(/C=C/c2ccccn2)n1-c1ccccc1	< 6.00	
CNCc1cccc(/C=C/c2nc3ccc(F)cc3c(=O)n2-c2ccccc2Cl)n1	6.99	
O=Cc1cccc(/C=C/c2nc3ccc(F)cc3c(=O)n2-c2ccccc2Cl)n1	7.01	
COc1cccc2c(=O)n(-c3ccccc3C)c(/C=C/c3ccccn3)nc12	< 6.00	
Cc1ccc2nc(/C=C/c3ccccn3)n(-c3ccccc3C)c(=O)c2c1	5.86	
Cc1ccccc1-n1c(/C=C/c2ccccn2)nc2c(Cl)cc(Cl)cc2c1=O	< 6.00	
O=c1c2cc(F)ccc2nc(/C=C/c2cccc(N3CCCC3)n2)n1-c1ccccc1Cl	7.51	
Cc1cccc(/C=C/c2nc3ccc(F)cc3c(=O)n2-c2ccccc2Cl)n1	7.44	
CCOCc1cccc(/C=C/c2nc3ccc(F)cc3c(=O)n2-c2ccccc2Cl)n1	7.09	
Cc1cccc(C)c1-n1c(/C=C/c2ccccn2)nc2ccccc2c1=O	< 6.00	
O=c1c2cc(F)ccc2nc(/C=C/c2ccccn2)n1-c1c(F)cccc1F	< 6.52	
NCc1cccc(/C=C/c2nc3ccc(F)cc3c(=O)n2-c2ccccc2Cl)n1	6.47	
N#Cc1cccc(/C=C/c2nc3ccc(F)cc3c(=O)n2-c2ccccc2Cl)n1	6.61	
Cc1ccccc1-n1c(/C=C/c2ccccn2)nc2cc(Cl)ccc2c1=O	< 5.52	
CC(C)NCc1cccc(/C=C/c2nc3ccc(F)cc3c(=O)n2-c2ccccc2Cl)n1	7.23	
CN(C)Cc1cccc(/C=C/c2nc3ccc(F)cc3c(=O)n2-c2ccccc2Cl)n1	6.75	
Cc1ccccc1-n1c(/C=C/c2ccccn2)nc2ccc(F)cc2c1=O	6.61	
CC(=O)OCc1cccc(/C=C/c2nc3ccc(F)cc3c(=O)n2-c2ccccc2Cl)n1	7.35	
O=c1c2ccccc2nc(/C=C/c2ccccn2)n1-c1ccccc1F	6.94	
O=c1c2ccccc2nc(/C=C/c2ccccn2)n1-c1ccccc1Br	6.99	
COCc1cccc(/C=C/c2nc3ccc(F)cc3c(=O)n2-c2ccccc2Cl)n1	7.38	

Structure (SMILES)	pIC50 [1]	other results
O=c1c2cc(F)ccc2nc(/C=C/c2ccccn2)n1-c1ccccc1F	6.74	
COc1ccccc1-n1c(/C=C/c2ccccn2)nc2ccccc2c1=O	5.96	
Cc1ccccc1-n1c(/C=C/c2ccccn2)nc2c(Cl)cccc2c1=O	< 6.00	
O=C(O)c1cccc(/C=C/c2nc3ccc(F)cc3c(=O)n2-c2ccccc2Cl)n1	< 6.00	
O=c1c2ccccc2nc(/C=C/c2ccccn2)n1-c1ccccc1Cl	6.36	
CCNCc1cccc(/C=C/c2nc3ccc(F)cc3c(=O)n2-c2ccccc2Cl)n1	7.09	
O=c1c2cc(F)ccc2nc(/C=C/c2ccccn2)n1-c1ccccc1Cl	7.02	
O=c1c2cc(F)ccc2nc(/C=C/c2cccc(CO)n2)n1-c1ccccc1Cl	7.24	
O=c1c2cc(F)ccc2nc(/C=C/c2cccc(N3CCCCC3)n2)n1-c1ccccc1Cl	< 6.52	
Cc1ccccc1-n1c(/C=C/c2ccccn2)nc2ccc(Cl)cc2c1=O	6.91	
O=c1c2ccccc2nc(/C=C/c2ccccn2)n1-c1ccccc1C(F)(F)F	6.84	
O=c1c2cc(F)ccc2nc(/C=C/c2cccc(CF)n2)n1-c1ccccc1Cl	7.25	
COc1cccc(/C=C/c2nc3ccc(F)cc3c(=O)n2-c2ccccc2Cl)n1	7.51	
O=c1c2ccccc2nc(/C=C/c2ccccn2)n1-c1c(Cl)cccc1Cl	< 6.00	
CN(C)CCN(C)Cc1cccc(/C=C/c2nc3ccc(F)cc3c(=O)n2-c2ccccc2Cl)n1	6.82	
Cc1ccccc1-n1c(/C=C/c2ccccn2)nc2ccc(Br)cc2c1=O	6.79	
COc1cc2nc(/C=C/c3ccccn3)n(-c3ccccc3C)c(=O)c2cc1OC	< 6.00	
O=c1c2cc(F)ccc2nc(/C=C/c2ccccn2)n1-c1ccccc1Br	7.19	
CCN(CC)Cc1cccc(/C=C/c2nc3ccc(F)cc3c(=O)n2-c2ccccc2Cl)n1 (stereo in doubt; 38)	7.13	pIC50 [2]: 7.60; Reduction (Rattus norvegicus [3]): 36%; Blockade (Rattus norvegicus [4]): 65.1%; ED50 (Mus musculus [5]; Mus musculus, sc, read-out: ID50 (the source's name)): 3.6 mg/kg; ID50 (Mus musculus [6]): 3.8 mg/kg; minimal effective dose (Mus musculus [7]; Mus musculus, sc, read-out: MED): 10 mg/kg
CCN(CC)Cc1cccc(/C=C/c2nc3ccc(F)cc3c(=O)n2-c2ccccc2Cl)n1 (stereo in doubt; (+)-38)		pIC50 [8]: 7.44; ID50 (Mus musculus [5]): 3.1 mg/kg; ID50 (Mus musculus [6]): 1.5 mg/kg; MED (Mus musculus [7]): 5.6 mg/kg
CCN(CC)Cc1cccc(/C=C/c2nc3ccc(F)cc3c(=O)n2-c2ccccc2Cl)n1 (stereo in doubt; (-)-38)		pIC50 [8]: 10.00; ED50 (Mus musculus [9]): 10 mg/kg
Cc1ccccc1-n1c(/C=C/c2ccccn2)nc2ccccc2c1=O [PIRIQUALONE]	6.34	
